According to US10899737B2, “Piperazine carbamates and methods of making and using same” (Lundbeck La Jolla Research Center, Inc., priority 2016, dated 2021):

Key:
MAGL [1] = molecular target: T1, MAGL (Homo sapiens, UniProt Q99685); assay: In vitro competitive activity-based protein profiling (human), MAGL; format: biochemical
T1 construct: Proteomes (human prefrontal cortex or cell membrane fractions); from tissue
T1 sequence (Q99685 1-303): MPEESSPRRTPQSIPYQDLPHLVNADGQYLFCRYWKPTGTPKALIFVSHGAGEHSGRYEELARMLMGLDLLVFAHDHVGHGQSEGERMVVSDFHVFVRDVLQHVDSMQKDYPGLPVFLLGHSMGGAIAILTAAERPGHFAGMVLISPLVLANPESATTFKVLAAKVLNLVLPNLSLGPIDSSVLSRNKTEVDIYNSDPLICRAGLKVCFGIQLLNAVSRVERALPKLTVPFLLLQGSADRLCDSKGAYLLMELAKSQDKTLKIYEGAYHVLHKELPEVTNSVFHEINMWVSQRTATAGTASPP
How it was run: (§1)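 Human prefrontal cortex or cell membrane proteomes (1.0-2.0 mg/mL protein) preincubated 30 min at 37° C with inhibitor, then labeled 30 min RT with FP-Rh or JW912 probe. After SDS-PAGE, activity taken from fluorescent band intensity for each enzyme.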

ABHD6 [2] = molecular target: T2, ABHD6 (Homo sapiens, UniProt Q9BV23); assay: In vitro competitive activity-based protein profiling (human), ABHD6; format: biochemical; conditions: human PC3
T2 construct: Proteomes (human prefrontal cortex or cell membrane fractions); endogenous in cells; human prefrontal cortex
T2 sequence (Q9BV23 1-337): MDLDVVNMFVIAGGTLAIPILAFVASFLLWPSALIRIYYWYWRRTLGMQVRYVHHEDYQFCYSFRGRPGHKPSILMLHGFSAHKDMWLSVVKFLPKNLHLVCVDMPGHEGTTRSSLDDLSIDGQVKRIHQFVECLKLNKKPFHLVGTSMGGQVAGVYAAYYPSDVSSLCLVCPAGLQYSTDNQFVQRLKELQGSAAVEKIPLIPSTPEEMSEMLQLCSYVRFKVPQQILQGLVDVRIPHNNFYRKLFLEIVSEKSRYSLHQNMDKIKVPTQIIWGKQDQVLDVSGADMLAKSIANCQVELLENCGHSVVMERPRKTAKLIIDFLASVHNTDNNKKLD
How it was run: as §1

MAGL [3] = molecular target: T3, MAGL (Mus musculus, UniProt O35678); assay: In vitro competitive activity-based protein profiling (mouse), MAGL; format: biochemical; conditions: 1 μM inhibitor, mouse brain membrane fraction or cell lysates; read-out: MAGL % inh. 1 μM (mouse)
T3 construct: Proteomes (mouse brain membrane fraction or cell lysates); from tissue; host or cells: mouse brain membrane fraction or cell lysates
T3 sequence (O35678 1-303): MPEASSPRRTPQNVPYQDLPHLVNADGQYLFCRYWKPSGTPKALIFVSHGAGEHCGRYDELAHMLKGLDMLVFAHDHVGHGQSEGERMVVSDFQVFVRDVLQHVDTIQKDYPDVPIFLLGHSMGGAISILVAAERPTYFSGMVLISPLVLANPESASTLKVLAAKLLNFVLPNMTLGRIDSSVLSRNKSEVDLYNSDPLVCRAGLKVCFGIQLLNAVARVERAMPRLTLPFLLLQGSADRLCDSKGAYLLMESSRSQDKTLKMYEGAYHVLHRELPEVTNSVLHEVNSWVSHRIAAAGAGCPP
How it was run: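 Mouse brain membrane fraction or cell lysate proteomes (50 μL, 1.0 mg/mL total protein) were preincubated with inhibitors at varying concentrations for 30 min at 37° C. FP-Rh (1.0 μL, 50 μM in DMSO) was then added for a further 30 min at 37° C. Samples were quenched with 4× SDS loading buffer and resolved by SDS-PAGE. MAGL activity was quantified from fluorescent gel band intensity using ImageJ 1.49 k.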

ABHD6 [4] = molecular target: T4, ABHD6 (Mus musculus, UniProt Q8R2Y0); assay: In vitro competitive activity-based protein profiling (mouse), ABHD6; format: biochemical; conditions: 1 μM inhibitor, mouse brain membrane fraction or cell lysates; read-out: ABHD6 % inh. 1 μM (mouse)
T4 construct: Proteomes (mouse brain membrane fraction or cell lysates); from tissue; host or cells: mouse brain membrane fraction or cell lysates
T4 sequence (Q8R2Y0 1-336): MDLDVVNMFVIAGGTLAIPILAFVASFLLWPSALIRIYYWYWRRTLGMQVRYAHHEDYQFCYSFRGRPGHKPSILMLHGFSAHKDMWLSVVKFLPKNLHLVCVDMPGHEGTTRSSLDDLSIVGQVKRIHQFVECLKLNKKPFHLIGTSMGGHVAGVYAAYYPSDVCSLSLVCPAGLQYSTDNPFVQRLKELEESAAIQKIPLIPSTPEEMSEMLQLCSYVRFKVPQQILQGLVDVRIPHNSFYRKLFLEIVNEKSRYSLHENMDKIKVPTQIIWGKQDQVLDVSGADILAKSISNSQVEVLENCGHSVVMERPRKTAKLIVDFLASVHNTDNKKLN
How it was run: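 Mouse brain membrane proteome or cell lysate (1.0 mg/mL protein) preincubated 30 min at 37 °C with inhibitor, then labelled 30 min at 37 °C with FP-rhodamine probe. Remaining MAGL and ABHD6 activity quantified by in-gel fluorescence band intensity after SDS-PAGE; values are % inhibition at 1 μM.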

MAGL [5] = molecular target: T3, MAGL; assay: Mouse brain proteomes from inhibitor treated mice, MAGL inhibition; format: in vivo; conditions: 5 mg/kg oral gavage, C57Bl/6J mouse brain, 4 h following administration; read-out: MAGL % inh. 5 mg/kg (mouse)
Experimental: Preparation of Mouse Brain Proteomes from Inhibitor Treated Mice.
Inhibitors were administered to wild-type C57Bl/6J by oral gavage in a vehicle of polyethylene glycol. Each animal was sacrificed 4 h following administration and brain proteomes were prepared and analyzed according to previously established methods (See Niphakis, M. J., et al. (2011) ACS Chem. Neurosci. and Long, J. Z., et al. Nat. Chem. Biol. 5:37-44).

Work on `O=C(O)CN1CC2CN(c3cc(C(F)(F)F)ccc3CN3CCN(C(=O)OC(C(F)(F)F)C(F)(F)F)CC3)CC2C1` (stereo not drawn) [Example 15, 2-(5-(2-((4-(((1,1,1,3,3,3-Hexafluoropropan-2-yl)oxy)carbonyl)piperazin-1-yl)methyl)-5-(trifluoromethyl)phenyl)hexahydropyrrolo[3,4-c]pyrrol-2(1H)-yl)acetic Acid] yielded an inhibition at 1 µM (MAGL [1]; 1 μM inhibitor, human proteome, 30 min preincubation at 37° C, read-out: MAGL % inh. 1 μM (human)) of no less than 75%, an IC50 (MAGL [1]; human PC3) of no more than 0.1 µM and an IC50 (ABHD6 [2]) of 1 to 10 µM. It also gave an inhibition at 1 µM (MAGL [3]) of no less than 75%, an inhibition at 1 µM (ABHD6 [4]) of 0 to 25% and an inhibition at 5 mg/kg (MAGL [5]) of 0 to 25%.
